From patent US6124498A, “Hydroxynaphthoic acids and derivatives” (University Of New Mexico, priority 1998, dated 2000)
“Also recorded” adds a separate entry of the source.

Assays:
[1] = biological target: T1, pLDH (Plasmodium falciparum, UniProt Q27743); test: biochemical; assay type: biochemical; settings: for selectivity for pLDH compared to LDH-H: pLDH vs LDH-H; for mode of inhibition of pLDH with respect to cofactor (NADH): vs cofactor NADH
T1 construct: made in house; host or cells: E. coli
T1 sequence (Q27743 whole entry): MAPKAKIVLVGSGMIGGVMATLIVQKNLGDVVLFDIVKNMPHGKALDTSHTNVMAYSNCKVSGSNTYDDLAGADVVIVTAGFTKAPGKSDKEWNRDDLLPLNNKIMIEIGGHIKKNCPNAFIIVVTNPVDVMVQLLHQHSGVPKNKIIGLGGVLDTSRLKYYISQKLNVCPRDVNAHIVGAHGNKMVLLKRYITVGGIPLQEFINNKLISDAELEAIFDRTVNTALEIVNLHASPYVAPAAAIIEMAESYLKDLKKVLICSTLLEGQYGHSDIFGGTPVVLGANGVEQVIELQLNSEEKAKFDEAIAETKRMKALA
Procedure: (§1) Human LDH-H4 and LDH-M4 were from Sigma.
(§2) LDH activity in the direction of NADH reduction of pyruvate to L-lactate was determined spectrophotometrically in pH 7.5 Tris buffer, 100 mM, containing 10 mM pyruvate and […], 25° C., 340 nm, ε=6.2 mM^-1 cm^-1. Michaelis constants were determined by nonlinear regression analysis of initial rate data using the Enzfitter program (Elsevier-Biosoft). Ki values were determined from double reciprocal plots by linear regression analysis.

[2] = biological target: T2, human LDH-M (LDH-M4) (Homo sapiens, UniProt P00338); test: Inhibition of human lactate dehydrogenase LDH-M (LDH-M4), NADH reduction of pyruvate; assay type: biochemical; settings: for selectivity for LDH-M compared to LDH-H: LDH-M vs LDH-H; for change in inhibition / dissociation constant of LDH-M relative to 13: group at 7-position, compared to 13; for mode of inhibition of LDH-M with respect to cofactor (NADH): vs cofactor NADH
T2 construct: purchased Sigma
Procedure: Recombinant pLDH was produced in E. coli, similar to the procedure described by Bzik et al. in "Expression of Plasmodium falciparum Lactate Dehydrogenase in Escherida coli." in Mol. Biochem. Parasitol., 1993, 59, 155-166 and was purified by Cibacron blue affinity chromatography and chromatofocusing as described previously. Human LDH-H4 and LDH-M4 were from Sigma.
as §2

[3] = biological target: T1, pLDH; test: Quenching of intrinsic protein fluorescence of pLDH in presence and absence of ADP; assay type: binding; settings: presence vs absence of ADP
Text: (§3) To test the Pan-Active Site inhibitor model for the compounds of the present invention, the binding of dihydroxynaphthoic acids to pLDH and human LDH was examined using fluorescence techniques. The effects of ADP on the binding of inhibitors was compared with the effects of ADP on the binding of NADH to determine which part of the cofactor binding site was the target of the inhibitors. Representative results are shown in FIGS. 13A and 13B for the binding of compound 25c to pLDH. […] In FIG. 13B is shown the quenching of pLDH fluorescence by compound 25c in the presence and absence of ADP.

[4] = system: IMP dehydrogenase type 11; settings: dominant isoenzyme in neoplastic cells; cited from earlier work
[5] = system: D-lactate dehydrogenase; test: Inhibition of D-lactate dehydrogenase; assay type: biochemical; settings: FIG. 14A
Procedure: (§4) Other studies with other dehydrogenases that contain the classic Rossman fold, in addition to LDH, were carried out to test that inhibition of dehydrogenases by substituted didhydroxynaphthoic acids is not limited to inhibition of LDH. A number of dehydrogenases were examined as shown in FIGS. 14A (2,3-dihydroxy-6-methyl-7-(o-methylbenzyl)-4-(1-methylethyl)-1-naphthoic acid (25e) inhibition D-lactate dehydrogenase), 14B (2,3-dihydroxy-6-methyl-7-(m-methylbenzyl)-4-(1-methylethyl)-1-naphthoic acid (25f) inhibition of malate dehydrogenase), 14C (compound 25b inhibition of glucose 6-phosphate dehydrogenase) and 14D (compound 21e inhibition of alcohol dehydrogenase).

[6] = system: alcohol dehydrogenase; test: Inhibition of alcohol dehydrogenase; assay type: biochemical; settings: FIG. 14D
Procedure: as §4

[7] = system: LDH-M4; test: Quenching of intrinsic protein fluorescence of LDH-M4 in presence and absence of ADP; assay type: binding, human; settings: presence vs absence of ADP
Text: as §3

[8] = system: malate dehydrogenase; test: Inhibition of malate dehydrogenase; assay type: biochemical; settings: FIG. 14B
Procedure: as §4

[9] = biological target: T3, human LDH-H (LDH-H4) (Homo sapiens, UniProt P07195); test: Inhibition of human lactate dehydrogenase LDH-H (LDH-H4), NADH reduction of pyruvate; assay type: biochemical; settings: group at 7-position, compared to 13
T3 construct: purchased Sigma
T3 sequence (P07195 2-334 limits assumed): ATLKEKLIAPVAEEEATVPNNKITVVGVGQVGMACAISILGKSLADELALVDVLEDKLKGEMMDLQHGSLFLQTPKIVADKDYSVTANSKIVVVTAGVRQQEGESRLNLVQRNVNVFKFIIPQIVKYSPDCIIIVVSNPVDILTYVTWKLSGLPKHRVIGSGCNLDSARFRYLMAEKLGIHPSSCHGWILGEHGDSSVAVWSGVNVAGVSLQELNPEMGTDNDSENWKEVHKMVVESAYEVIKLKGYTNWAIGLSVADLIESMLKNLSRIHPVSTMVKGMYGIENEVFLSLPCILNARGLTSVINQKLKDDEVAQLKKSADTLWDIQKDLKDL
Procedure: as §1, §2

[10] = system: glucose 6-phosphate dehydrogenase; test: Inhibition of glucose 6-phosphate dehydrogenase; assay type: biochemical; settings: FIG. 14C
Procedure: as §4

For `Cc1cc2c(C)c(O)c(O)c(C(=O)O)c2cc1Cc1ccccc1` [Compound 21c, 7-Benzyl-2,3-dihydroxy-4,6-dimethyl-1-naphthoic acid], the “selectivity for pLDH compared to LDH-H” value [1] was “selectivity for pLDH and LDH-M compared to LDH-H” and the “selectivity for LDH-M compared to LDH-H” value [2] was “selectivity for pLDH and LDH-M compared to LDH-H”.

With `NC(=O)C1=CN([C@@H]2O[C@H](COP(=O)(O)OP(=O)(O)OC[C@H]3O[C@@H](n4cnc5c(N)ncnc54)[C@H](O)[C@@H]3O)[C@@H](O)[C@H]2O)C=CC1` [NADH, reference compound] the “effect of ADP on binding to pLDH (fluorescence quenching)” value [3] was “the presence of ADP competes with the binding of NADH”.

In the case of `Cc1ccc2c(C(=O)O)c(O)c(O)c(C)c2c1` [Compound 21a, 2,3-Dihydroxy-4,6-dimethyl-1-naphthoic acid], the “selectivity for pLDH compared to LDH-H” value [1] is reported as “selectivity for pLDH and LDH-M compared to LDH-H” and the “selectivity for LDH-M compared to LDH-H” value [2] is reported as “selectivity for pLDH and LDH-M compared to LDH-H”.

In the case of `Cc1cc2c(C(=O)O)c(O)c(O)c(C(C)C)c2cc1C` [Compound 25a, 2,3-Dihydroxy-6,7-dimethyl-4-(1-methylethyl)-1-naphthoic acid], the “change in inhibition / dissociation constant of pLDH relative to 13” value ([1]; group at 7-position, compared to 13) is reported as “little change in the dissociation constants” and the “change in inhibition / dissociation constant of LDH-M relative to 13” value [2] is reported as “little change in the dissociation constants”.

With `Cc1ccc2c(C(=O)O)c(O)c(O)c(C(C)C)c2c1` [Compound 13, 8-deoxyhemigossylic acid, reference compound] the “dissociation constant for inhibition of pLDH” value ([1]; in words) was “low μmolar range”, the “mode of inhibition of pLDH with respect to cofactor (NADH)” value [1] was “competitive with the binding of NADH” and the “mode of inhibition of LDH-M with respect to cofactor (NADH)” value [2] was “competitive with the binding of NADH”.

For `NC(=O)c1csc([C@@H]2O[C@H](COP(=O)(O)OP(=O)(O)OC[C@H]3O[C@@H](n4cnc5c(N)ncnc54)[C@H](O)[C@@H]3O)[C@@H](O)[C@H]2O)n1` [thiazole-4-carboxamide adenine dinucleotide], the “inhibition of IMP dehydrogenase type 11” value [4] is given as “potent inhibitor”.

With `Cc1ccccc1Cc1cc2c(C(=O)O)c(O)c(O)c(C(C)C)c2cc1C` [Compound 25e, 2,3-dihydroxy-6-methyl-7-(o-methylbenzyl)-4-(1-methylethyl)-1-naphthoic acid] the “inhibition of D-lactate dehydrogenase” value [5] was “inhibition”.

With `CCCc1c(O)c(O)c(C(=O)O)c2cc(C)c(C)cc12` [Compound 21e, 2,3-Dihydroxy-6,7-dimethyl-4-n-propyl-1-naphthoic acid] the “selectivity for LDH-M compared to LDH-H” value [2] was 190 fold and the “inhibition of alcohol dehydrogenase” value [6] was “inhibition”.

With `Cc1cc2c(C(C)C)c(O)c(O)c(C(=O)O)c2cc1Cc1ccc(C(F)(F)F)cc1` [Compound 25c, 7-p-Trifluoromethylbenzyl-2,3-dihydroxy-6-methyl-4-(1-methylethyl)-1-naphthoic acid] the Ki ([1]; pH 7.5 Tris, 25° C., read-out: Ki for inhibition of pLDH) was 200 nM, the “selectivity for pLDH over LDH-H” value ([1]; pLDH over LDH-H) was 400 fold and the “selectivity for pLDH over LDH-M” value ([1]; pLDH over LDH-M) was 75 fold. The “mode of inhibition of pLDH with respect to cofactor (NADH)” value [1] was “competitive against both cofactor and substrate”, the “selectivity for pLDH compared to either human LDH” value ([1]; vs human LDH-M and LDH-H) was “highly selective in favor of pLDH” and the “mode of inhibition of pLDH with respect to substrate” value ([1]; vs substrate (pyruvate)) was “competitive against both cofactor and substrate; also recorded: appears competitive”. For the same compound, the “competition with the ADP part of the NADH binding site of pLDH” value [3] was “not competing with the ADP part of the NADH binding site”, the “effect of ADP on binding to pLDH (fluorescence quenching)” value [3] was “enhances the binding of inhibitor” and the “effect of ADP on binding to LDH-M4 (fluorescence quenching)” value [7] was “The same results were obtained with LDH-M4”.

With `Cc1ccc(Cc2cc3c(C(=O)O)c(O)c(O)c(C(C)C)c3cc2C)cc1` [Compound 25d, 2,3-dihydroxy-6-methyl-7-(p-methylbenzyl)-4-(1-methylethyl)-1-naphthoic acid] the Kd ([2]; pH 7.5 Tris, 25° C.) was 30 nM, the “mode of inhibition of LDH-M with respect to cofactor (NADH)” value [2] was “competitive against both cofactor and substrate” and the “mode of inhibition of LDH-M4 with respect to substrate” value ([2]; vs substrate (pyruvate), FIGS. 12A and 12B) was “competitive against both cofactor and substrate”.

In the case of `Cc1cc2c(C)c(O)c(O)c(C(=O)O)c2cc1C` [Compound 21b, 2,3-Dihydroxy-4,6,7-trimethyl-1-naphthoic acid], the “selectivity for pLDH compared to LDH-H” value [1] is reported as “selectivity for pLDH and LDH-M compared to LDH-H” and the “selectivity for LDH-M compared to LDH-H” value [2] is reported as “selectivity for pLDH and LDH-M compared to LDH-H”.

For `Cc1cccc(Cc2cc3c(C(=O)O)c(O)c(O)c(C(C)C)c3cc2C)c1` [Compound 25f, 2,3-dihydroxy-6-methyl-7-(m-methylbenzyl)-4-(1-methylethyl)-1-naphthoic acid], the “inhibition of malate dehydrogenase” value [8] was “inhibition”.

With `Cc1cc2c(C(C)C)c(O)c(O)c(C(=O)O)c2cc1Cc1ccccc1` [Compound 25b, 7-Benzyl-2,3-dihydroxy-6-methyl-4-(1-methylethyl)-1-naphthoic acid] the “change in inhibition / dissociation constant of LDH-H relative to 13” value [9] was “markedly stronger inhibition”, the “inhibition of glucose 6-phosphate dehydrogenase” value [10] was “inhibition” and the “change in inhibition / dissociation constant of LDH-M relative to 13” value [2] was “markedly stronger inhibition”.
